Reference: patent publication US20250049737A1, “Lauflumide and derivatives thereof for treating chronic fatigue syndrome and myalgic encephalomyelitis/chronic fatigue syndrome (ME/CFS)” (NLS Pharmaceutics AG, priority 2021, published 2025)
“Also recorded” adds a separate entry of the source.

Legend:
[1] = test system: Rat model of severe fatigue; assay: Rat model of severe fatigue (sleep deprivation): recording of circadian locomotor activity; assay type: in vivo, Rats, Sprague-Dawley; settings: for Difference of distance travelled between the dark phase and the light phase / Distance travelled during the 12-h dark phase / Distance travelled during the 12-h light phase / Total distance travelled during the full 24-h period: days 1, 2 and 3
Experimental: In the following example, Lauflumide is also called NLS-4.
Animals are individually housed in transparent polycarbonate cages (1354G Eurostandard Type IV cage, Tecniplast, Italy, 595×380×200 mm, floor area=1820 cm^2) filled with water (23±1° C.) to a height of 1.5 cm. A platform (5 cm height, 6.5 cm diameter) was located at the center of the cage. Animals can stay on the platform in order to stay dry but falls from it when it falls in deep sleep. […] During this period, animals were placed in a modified light/dark cycle with variable durations of the light and dark periods which change every day. This procedure is intended to disrupt the circadian rhythm.
The Sham group was housed in normal condition for the same period under a 12/12 h light/dark cycle.
After the end of the fatigue period, animals were placed in transparent polycarbonate cages (Type E, Iffa Credo, France, 450×300×200 mm, floor area=1032 cm^2), under a 12 h/12 h cycle. Cages were covered with a stainless steel grid in which food and a bottle are placed. A stainless steel removable divider separated food and water. The cages were placed in infrared photobeam detection systems (Acti-track, LSI Leticca, Panlab) allowing to record continuously the distance travelled in the cage. Locomotor activity was recorded continuously for 3 days. The test started at the beginning of the dark phase of the light/dark cycle.
Seventy-six animals were subjected to the fatigue procedure and to the tests as described above. Twelve animals (Sham group) were housed in standard condition.
(§1) After the end of the Fatigue procedure, animals were divided into 10 groups which received before tests (total: 3 administrations) a per-os (p.o., oral gavage) administration of: • Sham (no fatigue) group (N=12): Vehicle. • Control group (N=11): Vehicle. • Modafinil 32 (N=10): modafinil (32 mg/kg). • Modafinil 64 (N=10): modafinil (64 mg/kg). • Modafinil 128 (N=5): modafinil (128 mg/kg). • NLS-4 16 (N=5): NLS-4 (16 mg/kg). • NLS-4 32 (N=10): NLS-4 (32 mg/kg). • NLS-4 64 (N=10): NLS-4 (64 mg/kg). • NLS-4 128 (N=10): NLS-4 (128 mg/kg). • NLS-4 256 (N=5): NLS-4 (256 mg/kg).
Read-out: distance travelled during 24-h periods, 12-h dark and light periods and during 2-h periods.
Data are expressed as mean and standard error of mean (SEM).
Statistical analyses: Student's t test, repeated measure ANOVA.
A difference is considered statistically significant at p≤0.05.

[2] = Body weight during fatigue procedure and test period; assay type: in vivo, Rats, Sprague-Dawley; settings: 32-128 mg/kg p.o.; test period
Experimental: FIG. 26 Body weight (in g; mean, SEM) before the beginning and during the fatigue procedure (F-D1-7) and during the test period (T-D1-D3+24 h).
Animals were weighed every day.
as §1

[3] = test system: cocaine conditioned place preference; settings: 128 mg/kg; rats; cited from earlier work
[4] = 32 mg/kg p.o., vs. Control (fatigue) group
[5] = 32 mg/kg p.o., vs. Sham (no fatigue) group
[6] = 64 mg/kg p.o., vs. Control (fatigue) group
[7] = 64 mg/kg p.o., vs. Sham (no fatigue) group
[8] = 128 mg/kg p.o., vs. Control (fatigue) group
[9] = 128 mg/kg p.o., vs. Sham (no fatigue) group

NC(=O)C[S+]([O-])C(c1ccccc1)c1ccccc1 (stereo not drawn) [Modafinil, reference compound]
Motor activity during the first 2-h periods following the dosing ([1]; 32 mg/kg p.o.): increased | Activity during the following 22 h ([1]; 32 mg/kg p.o., after the first 2-h period following dosing): few or no modification | Difference of distance travelled between the dark phase and the light phase [1, 4]: not significantly different | Distance travelled during the 12-h dark phase [1, 4]: not significantly different | Distance travelled during the 12-h light phase [1, 4]: not significantly different | Total distance travelled during the full 24-h period [1, 4]: not significantly different | Difference of distance travelled between the dark phase and the light phase [1, 5]: not lower than the Sham group on days 1 and 2 only | Distance travelled during the 12-h dark phase [1, 5]: lower than the Sham group during the dark phase on days 1 and 2 only | Distance travelled during the 12-h light phase [1, 5]: higher than the Sham group during the light phase on day 1 only | Total distance travelled during the full 24-h period [1, 5]: not significantly different | Motor activity during the first 2-h periods following the dosing ([1]; 64 mg/kg p.o.): increased | Difference of distance travelled between the dark phase and the light phase [1, 6]: higher; also recorded: increased | Distance travelled during the 12-h dark phase [1, 6]: higher | Distance travelled during the 12-h light phase [1, 6]: not significantly different | Total distance travelled during the full 24-h period [1, 6]: higher | Difference of distance travelled between the dark phase and the light phase [1, 7]: not significantly different | Distance travelled during the 12-h dark phase [1, 7]: not significantly different | Distance travelled during the 12-h light phase [1, 7]: not significantly different | Total distance travelled during the full 24-h period [1, 7]: not significantly different | Difference of distance travelled between the dark phase and the light phase [1, 8]: higher for the Modafinil 128 group than for the Control group on days 1 and 2 only; also recorded: increased | Distance travelled during the 12-h dark phase [1, 8]: higher for the Modafinil 128 group than for the Control group during the dark period on days 1 and 2 only | Distance travelled during the 12-h light phase [1, 8]: not significantly different | Total distance travelled during the full 24-h period [1, 8]: higher for the Modafinil 128 group than for the Control group on day 1 only | Distance travelled during the 12-h dark phase [1, 9]: increase the distance travelled in comparison with the Sham group during the dark phase on day 1 | Total distance travelled during the full 24-h period [1, 9]: increase the distance travelled in comparison with the Sham group on day 1 | Weight loss induced by the fatigue procedure [2]: not modified | Cocaine conditioned place preference following extinction [3]: strongly reinstated
